The values below come from patent US20200371122A1, “BIOMARKER FOR SENESCENT CELLS” (Buck Institute for Research on Aging, priority 2017, published 2020).

In the experiment the test system is naïve nonsenescent IMR-90 fibroblasts. The experiment can be described thus: Conditioned media from senescent cells applied to naive IMR-90 fibroblasts (Col1a2, ACTA2 qPCR). The class given is cell-based, human. The protocol:
RNA was extracted from cells or tissues using commercially available kits (Isolate II—Bioline for cells; Direct-zol—Zymo for tissues) according to the manufacturer's instructions. cDNA synthesis was performed using a High Capacity cDNA Reverse Transcription Kit (Thermo Fisher) according to the manufacturer's instructions. Quantitative PCR was performed on a LightCycler 480 II (Roche) using primers and probes designed for the Universal Probe Library. Primers and probes used for human transcripts were ACTB: 5′-CCAACCGCGAGAAGATGA (SEQ ID NO:1), 5′-TCCATCACGATGCCAGTG (SEQ ID NO:2), Probe #64; TUBA: 5′-cttcgtctccgccatcag (SEQ ID NO:3), 5′-ttgccaatctggacacca (SEQ ID NO:4), Probe #58; ALOX5: 5′-[…] (SEQ ID NO:5), 5′-[…] (SEQ ID NO:6), Probe #64; ALOX5AP: 5′-ggtctgcggggctacttt (SEQ ID NO:7), 5′-[…] (SEQ ID NO:8), Probe #18; ALOX12: 5′-[…] (SEQ ID NO:9), 5′-agccaggtcgtcaggag (SEQ ID NO:10), Probe #32; ALOX15: 5′-[…] (SEQ ID NO:11), 5′-[…] (SEQ ID NO:12), Probe #76; ALOX15B: 5′-[…] (SEQ ID NO:13), 5′-actgggaggcgaagaagg (SEQ ID NO:14), Probe #51; AKR1C1: 5′-catgcctgtcctgggattt (SEQ ID NO:15), 5′-[…] (SEQ ID NO:16), Probe #49; AKR1C2: 5′-ctatgcgcctgcagaggt (SEQ ID NO:17), 5′-[…] (SEQ ID NO:18), Probe #31; AKR1C3: 5′-[…] (SEQ ID NO:19), 5′-[…] (SEQ ID NO:20), Probe #78; CYSLTR2: 5′-[…] (SEQ ID NO:21), 5′-[…] (SEQ ID NO:22), Probe #18; DPEP1: 5′-gacgtcctgaggctggtg (SEQ ID NO:23), 5′-[…] (SEQ ID NO:24), Probe #9 (SEQ ID NO:25), ELOVL2: 5′-[…] (SEQ ID NO:26), 5′-[…] (SEQ ID NO:27), Probe #53; ELOVL4: 5′-catttggcccatggattc (SEQ ID NO:28), 5′-[…] (SEQ ID NO:29), Probe #31; ELOVL5: 5′-cccttccatgcgtccata (SEQ ID NO:30), 5′-[…] (SEQ ID NO:31), Probe #31; EPHX2: 5′-ttctgctggacaccctgaa (SEQ ID NO:32), 5′-[…] (SEQ ID NO:33), Probe #45; GPX4: 5′-ttcccgtgtaaccagttcg (SEQ ID NO:34), 5′-[…] (SEQ ID NO:35), Probe #36; LTA4H: 5′-ctgctctcacggtccagtc (SEQ ID NO:36), 5′-[…] (SEQ ID NO:37), Probe #64; LTBR2: 5′-[…] (SEQ ID NO:38), 5′-[…] (SEQ ID NO:39), Probe #33; LTC4S: 5′-[…] (SEQ ID NO:40), 5′-[…] (SEQ ID NO:41), Probe #18; PTGDS: 5′-[…] (SEQ ID NO:42), 5′-[…] (SEQ ID NO:43), Probe #36; PTGES: 5′-agagatgcctgcccacag (SEQ ID NO:44), 5′-tggccaccacgtacatctt (SEQ ID NO:45), Probe #4; PTGES2: 5′-[…] (SEQ ID NO:46), 5′-[…] (SEQ ID NO:47), Probe #49; PTGES3 (SEQ ID NO:48), 5′-[…] (SEQ ID NO:49), 5′-[…] (SEQ ID NO:50), Probe #48; PTGIS: 5′-[…] (SEQ ID NO:51), 5′-[…] (SEQ ID NO:52), Probe #45; PTGR1: 5′-atgatggggcagcaagtg (SEQ ID NO:53), 5′-cccatcagaaatggagtgc (SEQ ID NO:54), Probe #64; PTGS1: 5′-[…] (SEQ ID NO:55), 5′-gtggtggtccatgttcctg (SEQ ID NO:56), Probe #81; PTGS2: 5′-gatccccagggctcaaac (SEQ ID NO:57), 5′-[…] (SEQ ID NO:58), Probe #61; TBXAS1: 5′-[…] (SEQ ID NO:59), 5′-tgcctcccgtgtgaatct (SEQ ID NO:60), Probe #73; AREG: 5′-[…] (SEQ ID NO:61), 5′-[…] […]
(In general: Quantitative PCR measures a nucleic acid by following its amplification.)

On to `CS(=O)(=O)Nc1ccc([N+](=O)[O-])cc1OC1CCCCC1` [NS-398], for which the “decline of ACTA2 induction at Day 20 relative to Day 2” value (Day 20 CM) is “abrogated this decline”.
As to `CC(c1cc2ccccc2s1)N(O)C(N)=O` (stereo not shown) [zileuton], the “collagen expression induced by CM from senescent cells” value is reported as “prevented this effect” (Day 2 CM, with or without TGF-beta, donor cells treated 24 h) and “again prevented” (Day 20 CM in the presence of TGF-beta). Further, the “smooth muscle actin expression (ACTA2)” value (regardless of time point) is reported as “no effect”.
